From patent publication US6586000B2, “Hydroxide-releasing agents as skin permeation enhancers” (Dermatrends, Inc., priority 1999, dated 2003)

Experiment: In vitro permeation of oxytocin solution through NaOH-pretreated skin, Franz-type diffusion cells
Type: in vitro ADME, human
Protocol: The volume of receiver solution was 8 ml. […] Eighteen diffusion cells were used in this study. A 2% NaOH aqueous solution (50 μl) was introduced to the donor chambers of nine cells (cells #1 to 9) and a 4% NaOH aqueous solution (50 μl) was introduced to the donor chambers of the other nine cells (cells #10 to 18). Once the NaOH solution is applied, the donor chamber was covered with parafilm.
After 5 hours, the NaOH solution was washed away from the skin for 3 cells (cells #1 to 3) that were treated with 2% NaOH solution and 3 cells (cells #10 to 12) that were treated with 4% NaOH solution. […] After 24 hours, the NaOH solution was washed away from the skin for 3 cells (cells #7 to 9) that were treated with 2% NaOH solution and 3 cells (cells #16 to 18) that were treated with 4% NaOH solution. To wash away the NaOH solution, the receiving fluid was removed and replaced with fresh DI water. This was done twice. DI water was added to the donor chamber to dilute the NaOH solution and then the donor solution was removed. This was repeated several times.
After the NaOH solution was washed away from the skin, the solution in the donor chamber was completely removed and replaced by 50 μl of an oxytocin solution. Once the oxytocin solution is applied, the donor chamber was covered with parafilm.
The cells were filled with DI water as a receiver solution. The DI water had been degased to remove air bubbles. […] The samples taken were analyzed by HPLC for the concentration of oxytocin in the receiver solution. The cumulative amount of oxytocin across human cadaver skin was calculated using the measured oxytocin concentrations in the receiver solutions for each time point, which were listed in Table 46.
The volume of receiver solution was 8 ml. […] Eighteen diffusion cells were used in this study. A 0.25% NaOH aqueous solution (50 μl) was introduced to the donor chambers of nine cells (cells #1 to 9) and A 1.0% NaOH aqueous solution (50 μl) was introduced to the donor chambers of the other nine cells (cells #10 to 18). Once the NaOH solution is applied, the donor chamber was covered with parafilm.
After 5 hours, the NaOH solution was washed away from the skin for 3 cells (cells #1 to 3) that were treated with […] and 3 cells (cells #10 to 12) that were treated with 1.0% NaOH solution. After 11 hours, the NaOH solution was washed away from the skin for 3 cells (cells #4 to 6) that were treated with 0.25% NaOH solution and 3 cells (cells #13 to 15) that were treated with 1.0% NaOH solution. After 24 hours, the NaOH solution was washed away from the skin for 3 cells (cells #7 to 9) that were treated with 0.25% NaOH solution and 3 cells (cells #16 to 18) that were treated with 1.0% NaOH solution. To wash away the NaOH solution, the receiving fluid was removed and replaced with fresh DI water. This was done twice. DI water was added to the donor chamber to dilute the NaOH solution and then the donor solution was removed. This was repeated several times until the pH of donor solution was less than 8.
The cells were filled with DI water as a receiver solution. The DI water has been degased to remove air bubbles. […] The cumulative amount of oxytocin across human cadaver skin was calculated using the measured oxytocin concentrations in the receiver solutions for each time point, which were listed in Table 48.

SMILES: CC[C@H](C)[C@@H]1NC(=O)[C@H](Cc2ccc(O)cc2)NC(=O)[C@@H](N)CSSC[C@@H](C(=O)N2CCC[C@H]2C(=O)N[C@@H](CC(C)C)C(=O)NCC(N)=O)NC(=O)[C@H](CC(N)=O)NC(=O)[C@H](CCC(N)=O)NC1=O [Oxytocin, oxytocin]
- Cumulative Amount of Oxytocin Permeated Across Human Cadaver Skin (skin pretreated by 1.0% NaOH for 5 hr, 4.25 hours): 0.45 μg/cm^2
- Cumulative Amount of Oxytocin Permeated Across Human Cadaver Skin (skin pretreated by 1.0% NaOH for 5 hr, 24 hours): 0.97 μg/cm^2
- Cumulative Amount of Oxytocin Permeated Across Human Cadaver Skin (skin pretreated by 1.0% NaOH for 5 hr, […]): 0.97 μg/cm^2
- Cumulative Amount of Oxytocin Permeated Across Human Cadaver Skin (skin pretreated by 1.0% NaOH for 11 hr, 4.25 hours): 53.42 μg/cm^2
- Cumulative Amount of Oxytocin Permeated Across Human Cadaver Skin (skin pretreated by 1.0% NaOH for 11 hr, 24 hours): 75.36 μg/cm^2
- Cumulative Amount of Oxytocin Permeated Across Human Cadaver Skin (skin pretreated by 1.0% NaOH for 11 hr, […]): 67.97 μg/cm^2
- Cumulative Amount of Oxytocin Permeated Across Human Cadaver Skin (skin pretreated by 1.0% NaOH for 24 hr, 4.25 hours): 13.23 μg/cm^2
- Cumulative Amount of Oxytocin Permeated Across Human Cadaver Skin (skin pretreated by 1.0% NaOH for 24 hr, 24 hours): 30.97 μg/cm^2
- Cumulative Amount of Oxytocin Permeated Across Human Cadaver Skin (skin pretreated by 1.0% NaOH for 24 hr, […]): 21.06 μg/cm^2
- Cumulative Amount of Oxytocin Permeated Across Human Cadaver Skin (skin pretreated by 4% NaOH for 5 hr, 5 hours): 118.95 μg/cm^2
- Cumulative Amount of Oxytocin Permeated Across Human Cadaver Skin (skin pretreated by 4% NaOH for 5 hr, 15 hours): 200.66 μg/cm^2
- Cumulative Amount of Oxytocin Permeated Across Human Cadaver Skin (skin pretreated by 4% NaOH for 5 hr, 24 hours): 225.52 μg/cm^2
- Cumulative Amount of Oxytocin Permeated Across Human Cadaver Skin (skin pretreated by 4% NaOH for 15 hr, 5 hours): 202.28 μg/cm^2
- Cumulative Amount of Oxytocin Permeated Across Human Cadaver Skin (skin pretreated by 4% NaOH for 15 hr, 15 hours): 222.45 μg/cm^2
- Cumulative Amount of Oxytocin Permeated Across Human Cadaver Skin (skin pretreated by 4% NaOH for 15 hr, 24 hours): 231.58 μg/cm^2
- Cumulative Amount of Oxytocin Permeated Across Human Cadaver Skin (skin pretreated by 4% NaOH for 24 hr, 5 hours): 193.82 μg/cm^2
- Cumulative Amount of Oxytocin Permeated Across Human Cadaver Skin (skin pretreated by 4% NaOH for 24 hr, 15 hours): 232.72 μg/cm^2
- Cumulative Amount of Oxytocin Permeated Across Human Cadaver Skin (skin pretreated by 4% NaOH for 24 hr, 24 hours): 236.80 μg/cm^2
